Molecular target: T1, porcine pancreatic elastase (Sus scrofa, UniProt P00772)
T1 construct: gene CELA1; native mature enzyme from porcine pancreas (commercial, Sigma-Aldrich)
Assay: spectrophotometric, p-nitroanilide release, […] nm
Type: biochemical

T1 sequence (P00772 27-266): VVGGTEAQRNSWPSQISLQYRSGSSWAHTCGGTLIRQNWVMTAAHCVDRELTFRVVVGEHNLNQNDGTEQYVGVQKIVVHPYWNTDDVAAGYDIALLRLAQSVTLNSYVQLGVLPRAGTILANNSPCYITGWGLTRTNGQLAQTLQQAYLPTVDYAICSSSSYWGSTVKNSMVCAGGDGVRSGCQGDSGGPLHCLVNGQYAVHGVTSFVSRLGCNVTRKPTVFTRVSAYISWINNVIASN

## O=C(O[C@@H]1Cc2c(O)cc(O)cc2O[C@@H]1c1cc(O)c(O)c(O)c1)c1cc(O)c(O)c(O)c1 [EGCG]
  IC50: 9.27 µM

From PMC12389234, “Bioactive Potential of Nepenthes miranda Flower Extracts: Antidiabetic, Anti-Skin Aging, Cytotoxic, and Dihydroorotase-Inhibitory Activities” (Plants, 2025)
